The source of these data is PubChem BioAssay AID248 (DTP/NCI, 2004).

The test system of this assay is L1210 leukemia ip in BDF1 mice, survival T/C. As to the kind of experiment: NCI In Vivo Anticancer Drug Screen. Data for tumor model L1210 Leukemia (intraperitoneal) in B6D2F1 (BDF1) mice. Particulars: endpoint: mean survival time, higher = longer survival. In outline: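 Each compound was tested against a transplantable tumor grown in mice. The endpoint was survival, with treated animals benchmarked against vehicle controls as a simple ratio.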

Setting [1] is: dose: 100.0 mg/kg/injection, schedule: Q01DX001 (ip), vehicle: saline.
The mark [2] stands for this setting: dose: 200.0 mg/kg/injection, schedule: Q01DX001 (ip), vehicle: saline.
Where [3] appears, read: dose: 100.0 mg/kg/injection, schedule: Q01DX009 (ip), vehicle: Klucel (hydroxypropylcellulose) (HPC).
The mark [4] stands for this setting: dose: 100.0 mg/kg/injection, schedule: Q04DX003 (ip), vehicle: Klucel (hydroxypropylcellulose) (HPC).
[5] abbreviates: dose: 200.0 mg/kg/injection, schedule: Q01DX009 (ip), vehicle: Klucel (hydroxypropylcellulose) (HPC).
The mark [6] stands for this setting: dose: 200.0 mg/kg/injection, schedule: Q04DX003 (ip), vehicle: Klucel (hydroxypropylcellulose) (HPC).
Setting [7] is: dose: 400.0 mg/kg/injection, schedule: Q01DX009 (ip), vehicle: Klucel (hydroxypropylcellulose) (HPC).
Where [8] appears, read: dose: 400.0 mg/kg/injection, schedule: Q04DX003 (ip), vehicle: Klucel (hydroxypropylcellulose) (HPC).
The mark [9] stands for this setting: dose: 100.0 mg/kg/injection, schedule: Q01DX001 (ip), vehicle: other.
[10] abbreviates: dose: 400.0 mg/kg/injection, schedule: Q01DX001 (ip), vehicle: other.
Where [11] appears, read: dose: 50.0 mg/kg/injection, schedule: Q01DX009 (ip), vehicle: Klucel (hydroxypropylcellulose) (HPC).
The mark [12] stands for this setting: dose: 100.0 mg/kg/injection, schedule: Q04DX003 (ip), vehicle: saline with Tween-80.
Setting [13] is: dose: 200.0 mg/kg/injection, schedule: Q04DX003 (ip), vehicle: saline with Tween-80.
Setting [14] is: dose: 100.0 mg/kg/injection, schedule: Q01DX001 (ip), vehicle: carboxymethylcellulose (CMC).
The mark [15] stands for this setting: dose: 200.0 mg/kg/injection, schedule: Q01DX001 (ip), vehicle: carboxymethylcellulose (CMC).
The mark [16] stands for this setting: dose: 400.0 mg/kg/injection, schedule: Q01DX001 (ip), vehicle: carboxymethylcellulose (CMC).

Inconclusive results and toxic doses are left out.

In the case of `NC(N)=NC(N)=NCCCc1ccccc1`, the T/C was 107 % of control (dose: 12.5 mg/kg/injection, schedule: Q01DX001 (ip), vehicle: other); 97 % of control (dose: 12.5 mg/kg/injection, schedule: Q04DX003 (ip), vehicle: other); 96 % of control (dose: 25.0 mg/kg/injection, schedule: Q01DX001 (ip), vehicle: other); 94 % of control (dose: 25.0 mg/kg/injection, schedule: Q04DX003 (ip), vehicle: other); 102 % of control (dose: 50.0 mg/kg/injection, schedule: Q01DX001 (ip), vehicle: other); 97 % of control (dose: 50.0 mg/kg/injection, schedule: Q04DX003 (ip), vehicle: other). The T/C runs as follows: under setting [1], 96 % of control; under setting [2], 96 % of control.
Take `O=C(c1ccccc1)c1c2ccccc2c(C(=O)c2ccccc2)c2ccccc12`: the T/C is, setting by setting: under setting [3], 104 % of control; under setting [4], 103 % of control; under setting [5], 97 % of control; under setting [6], 100 % of control; under setting [7], 97 % of control; under setting [8], 99 % of control.
Turning to `CCCB(O)O`, the T/C under setting [9] is 100 % of control; the T/C (dose: 100.0 mg/kg/injection, schedule: Q04DX003 (ip), vehicle: other) was 106 % of control; the T/C (dose: 200.0 mg/kg/injection, schedule: Q01DX001 (ip), vehicle: other) was 101 % of control; the T/C (dose: 200.0 mg/kg/injection, schedule: Q04DX003 (ip), vehicle: other) was 105 % of control; the T/C under setting [10] was 101 % of control; the T/C (dose: 400.0 mg/kg/injection, schedule: Q04DX003 (ip), vehicle: other) is 106 % of control.
Take `CN1C(=O)CCN(CCCN2CCC(=O)N(C)C2=S)C1=S`: the T/C runs as follows: (dose: 100.0 mg/kg/injection, schedule: Q04DX002 (ip), vehicle: saline with Tween-80) 95 % of control; (dose: 200.0 mg/kg/injection, schedule: Q04DX002 (ip), vehicle: saline with Tween-80) 95 % of control; (dose: 400.0 mg/kg/injection, schedule: Q04DX002 (ip), vehicle: saline with Tween-80) 88 % of control.
`CC1CC(=O)N(Cl)C(=O)N1Cl` (stereo not drawn): the T/C runs as follows: (dose: 75.0 mg/kg/injection, schedule: Q01DX001 (ip), vehicle: saline) 102 % of control; (dose: 150.0 mg/kg/injection, schedule: Q01DX001 (ip), vehicle: saline) 106 % of control.
Consider `O=C(c1ccc(Cl)cc1)c1ccc(Cl)cc1`, for which the T/C reads like this: under setting [4], 105 % of control; under setting [6], 100 % of control; under setting [8], 96 % of control.
For `O=NN(CCCl)C(=O)NC1CCS(=O)(=O)C1` (stereo not drawn) (tested in a mixture with another compound), the T/C by setting is: (dose: 6.0 mg/kg/injection, schedule: Q01DX001 (ip), vehicle: other) 177 % of control; (dose: 9.0 mg/kg/injection, schedule: Q01DX001 (ip), vehicle: other) 270 % of control; (dose: 13.0 mg/kg/injection, schedule: Q01DX001 (ip), vehicle: other) 300 % of control; (dose: 20.0 mg/kg/injection, schedule: Q01DX001 (ip), vehicle: other) 200 % of control; (dose: 30.0 mg/kg/injection, schedule: Q01DX001 (ip), vehicle: other) 223 % of control; (dose: 44.0 mg/kg/injection, schedule: Q01DX001 (ip), vehicle: other) 184 % of control. For the same compound, the T/C (dose: 67.0 mg/kg/injection, schedule: Q01DX001 (ip), vehicle: other) is 102 % of control.
As for `COc1ccc(/C=N/NC(=O)c2ccco2)cc1OC`, the T/C runs as follows: under setting [9], 93 % of control; under setting [10], 96 % of control.
Take `COc1cc(Cl)ccc1NC(=O)Oc1cccc(NC(C)=O)c1`: the T/C is 100 % of control under setting [3], 89 % of control under setting [5] and 100 % of control under setting [7].
For `O=C(CSCCCCl)OCCSCCCCl`, the T/C by setting is: (dose: 17.5 mg/kg/injection, schedule: Q01DX Z (ip), vehicle: saline) 93 % of control; (dose: 70.0 mg/kg/injection, schedule: Q01DX Z (ip), vehicle: saline) 104 % of control.
With `COC(=O)c1ccccc1NC(=O)Nc1ccccc1F`, the T/C is, setting by setting: under setting [11], 90 % of control; under setting [3], 96 % of control; under setting [5], 93 % of control.
Take `C=CCOC(=O)c1ccccc1N`: the T/C was 98 % of control (dose: 100.0 mg/kg/injection, schedule: Q01DX009 (ip), vehicle: saline with Tween-80); 104 % of control under setting [12]; 98 % of control (dose: 200.0 mg/kg/injection, schedule: Q01DX009 (ip), vehicle: saline with Tween-80); 101 % of control under setting [13].
Take `N=C(N)SCCN1CCCCC1`: the T/C reads like this: (dose: 75.0 mg/kg/injection, schedule: Q01DX001 (ip), vehicle: acetone) 102 % of control; (dose: 150.0 mg/kg/injection, schedule: Q01DX001 (ip), vehicle: acetone) 100 % of control.
Regarding `CSc1cc2c(cc1NC(C)=O)Cc1cc(F)ccc1-2`, the T/C by setting is: under setting [14], 98 % of control; under setting [15], 101 % of control; under setting [16], 95 % of control.
For `CC(=O)c1cccc(NC(=O)Oc2ccc(Cl)cc2Cl)c1`, the T/C under setting [3] is 101 % of control and the T/C under setting [5] is 110 % of control.
Take `CC(Cc1ccccc1)N(C)C(=O)CN1C(=O)c2ccccc2C1=O` (stereo not drawn): the T/C runs as follows: (dose: 50.0 mg/kg/injection, schedule: Q01DX001 (ip), vehicle: saline) 103 % of control; under setting [1], 117 % of control; under setting [2], 109 % of control; (dose: 400.0 mg/kg/injection, schedule: Q01DX001 (ip), vehicle: saline) 91 % of control.
Take `Cc1cc2ccccc2[n+](C)c1-c1ccccc1Br`: the T/C (dose: 5.0 mg/kg/injection, schedule: Q01DX001 (ip), vehicle: saline) is 108 % of control and the T/C (dose: 10.0 mg/kg/injection, schedule: Q01DX001 (ip), vehicle: saline) is 95 % of control.
As for `NC1C2C3CCC(C(C(=O)O)C3C(=O)O)C12` (stereo not drawn), the T/C under setting [12] is 89 % of control; the T/C under setting [13] was 110 % of control; the T/C (dose: 400.0 mg/kg/injection, schedule: Q04DX003 (ip), vehicle: saline with Tween-80) is 100 % of control.
`COC(=O)CCC(=O)c1ccc(OC)cc1`: the T/C is 94 % of control under setting [3], 100 % of control under setting [5] and 96 % of control under setting [7].
Consider `O=C(OCc1ccccc1CN1CCCC1)c1cccc(Cl)c1`, for which the T/C was 102 % of control (dose: 100.0 mg/kg/injection, schedule: Q01DX001 (ip), vehicle: Klucel (hydroxypropylcellulose) (HPC)) and 117 % of control (dose: 200.0 mg/kg/injection, schedule: Q01DX001 (ip), vehicle: Klucel (hydroxypropylcellulose) (HPC)).
For `Clc1ccc(CSc2ncc(Br)c(Nc3cc(Cl)ccc3Cl)n2)cc1`, the T/C is, setting by setting: (dose: 50.0 mg/kg/injection, schedule: Q01DX Z (ip), vehicle: methylcellulose (MC)) 96 % of control; (dose: 200.0 mg/kg/injection, schedule: Q01DX Z (ip), vehicle: methylcellulose (MC)) 89 % of control.
Regarding `N#CCCN(CCC#N)c1ccccc1`, the T/C was 94 % of control (dose: 100.0 mg/kg/injection, schedule: Q01DX009 (ip), vehicle: saline); 102 % of control (dose: 200.0 mg/kg/injection, schedule: Q01DX009 (ip), vehicle: saline); 107 % of control (dose: 400.0 mg/kg/injection, schedule: Q01DX009 (ip), vehicle: saline).
For the compound `Nc1nc(=S)c2[nH]c(N=Nc3ccc(S(=O)(=O)O)cc3)nc2[nH]1`, the T/C by setting is: (dose: 25.0 mg/kg/injection, schedule: Q01DX009 (ip), vehicle: Klucel (hydroxypropylcellulose) (HPC)) 100 % of control; under setting [11], 102 % of control; (dose: 50.0 mg/kg/injection, schedule: Q04DX003 (ip), vehicle: Klucel (hydroxypropylcellulose) (HPC)) 114 % of control; under setting [3], 102 % of control; under setting [4], 153 % of control.
Consider `N#Cc1ccccc1-c1ccccc1C#N`, for which the T/C was 105 % of control under setting [14], 107 % of control under setting [15] and 107 % of control under setting [16].
